Earlier results, collected in patent US20040235753A1, “Oxytocin agonists” (priority 2001, published 2004).
Like-named read-outs stand apart in the source and are kept apart here.

Test system: erectile response
Settings: male rats

**Q.** With `CC[C@H](C)[C@@H]1NC(=O)[C@H](Cc2ccc(O)cc2)NC(=O)[C@@H](N)CSSC[C@@H](C(=O)N2CCC[C@H]2C(=O)N[C@@H](CC(C)C)C(=O)NCC(N)=O)NC(=O)[C@H](CC(N)=O)NC(=O)[C@H](CCC(N)=O)NC1=O` [OT, oxytocin] as the compound, how does the erectogenic activity (i.c.v.) read?
**A.** The erectogenic activity was “erectogenic”.

**Q.** And the erectogenic activity (i.v., doses required up to two orders of magnitude greater than i.c.v.)?
**A.** The erectogenic activity was “erectogenic activity”.
